Marks after values point to notes of the source that are not given here.
Assay: HPLC assay (concentration / percentage recovery) of formulations at preparation and on storage
Conditions: for Concentration (assay): 40 mM B-R buffer

Substance: DMT fumarate [SPL026]
- content after filtration (20 mg/mL in B-R buffer, pH 4 to 10, filtered after overnight storage): approximately the same content
- Concentration (assay) (nominal pH 4.0, Day 7 (7 days 40° C.)): 2.57 mg/mL
- Concentration (assay) (nominal pH 4.0, Day 17 (10 days 40° C. then 7 days 50° C.)): 2.52 mg/mL
- Concentration (assay) (nominal pH 4.0, Initial): 2.47 mg/mL
- Concentration (assay) (nominal pH 5.0, Day 7 (7 days 40° C.)): 2.48 mg/mL
- Concentration (assay) (nominal pH 5.0, Day 17 (10 days 40° C. then 7 days 50° C.)): 2.52 mg/mL
- Concentration (assay) (nominal pH 5.0, Initial): 2.50 mg/mL
- Concentration (assay) (nominal pH 6.0, Day 7 (7 days 40° C.)): 2.56 mg/mL
- Concentration (assay) (nominal pH 6.0, Day 17 (10 days 40° C. then 7 days 50° C.)): 2.48 mg/mL
- Concentration (assay) (nominal pH 6.0, Initial): 2.51 mg/mL
- Concentration (assay) (nominal pH 6.5, Day 7 (7 days 40° C.)): 2.59 mg/mL
- Concentration (assay) (nominal pH 6.5, Day 17 (10 days 40° C. then 7 days 50° C.)): 2.51 mg/mL
- Concentration (assay) (nominal pH 6.5, Initial): 2.49 mg/mL
- Concentration (assay) (nominal pH 7.0, Day 7 (7 days 40° C.)): 2.54 mg/mL
- Concentration (assay) (nominal pH 7.0, Day 17 (10 days 40° C. then 7 days 50° C.)): 2.45 mg/mL
- Concentration (assay) (nominal pH 7.0, Initial): 2.54 mg/mL
- Concentration (assay) (nominal pH 7.0, on completion of light stressing (200 watt hours UVA, 0.6 million lux hours)): 2.26^a mg · mL^−1
- Concentration (assay) (nominal pH 7.0 UV Light aliquot, Initial): 2.54 mg/mL
- Concentration (assay) (nominal pH 7.0 sparged N2, Day 7 (7 days 40° C.)): 2.54 mg/mL
- Concentration (assay) (nominal pH 7.0 sparged N2, Day 17 (10 days 40° C. then 7 days 50° C.)): 2.51 mg/mL
- Concentration (assay) (nominal pH 7.0 sparged N2, Initial): 2.54 mg/mL
- Concentration (assay) (nominal pH 7.5, Day 7 (7 days 40° C.)): 2.55 mg/mL
- Concentration (assay) (nominal pH 7.5, Day 17 (10 days 40° C. then 7 days 50° C.)): 2.46 mg/mL
- Concentration (assay) (nominal pH 7.5, Initial): 2.50 mg/mL
- Concentration (assay) (nominal pH 8.0, Day 7 (7 days 40° C.)): 2.49 mg/mL
- Concentration (assay) (nominal pH 8.0, Day 17 (10 days 40° C. then 7 days 50° C.)): 2.42 mg/mL
- Concentration (assay) (nominal pH 8.0, Initial): 2.49 mg/mL
- Concentration (assay) (nominal pH 9.0, Day 7 (7 days 40° C.)): 2.41 mg/mL
- Concentration (assay) (nominal pH 9.0, Day 17 (10 days 40° C. then 7 days 50° C.)): 2.46 mg/mL
- Concentration (assay) (nominal pH 9.0, Initial): 2.47 mg/mL

From patent US11406619B2, “Injectable formulations” (priority 2020, dated 2022)
